Source: ChEMBL document CHEMBL1201862, “PubChem BioAssay data set” (2004)
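Assay format: 96-well plates, 48-hour exposure. Abbreviation: GI50, concentration required for 50% inhibition of growth.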 The source made the active and inactive calls. No stated cut-off is given here; in the data, active = GI50 up to about 1.1 µM and inactive = higher.

Columns and labels:
Assay in all cases: NCI anticancer screen, dose series, 48 h
EKVX = tested on: EKVX
MDA-MB-435 = tested on: MDA-MB-435
NCI-H226 = tested on: NCI-H226
SF-539 = tested on: SF-539
SF-295 = tested on: SF-295
Malme-3M = tested on: Malme-3M
MOLT-4 = tested on: MOLT-4
NCI/ADR-RES = tested on: NCI/ADR-RES
IGROV-1 = tested on: IGROV-1
M14 = tested on: M14
UACC-62 = tested on: UACC-62
SW-620 = tested on: SW-620
KM12 = tested on: KM12
SNB-75 = tested on: SNB-75
BT-549 = tested on: BT-549
SF-268 = tested on: SF-268
RXF 393 = tested on: RXF 393
NCI-H522 = tested on: NCI-H522
OVCAR-5 = tested on: OVCAR-5
HCC 2998 = tested on: HCC 2998

Measured: GI50

CC(=O)CC(=O)Nc1ccc2ccccc2c1
inactive: EKVX > 100 µM | MDA-MB-435 67.9 µM | NCI-H226 > 100 µM | SF-539 53.6 µM | SF-295 69.7 µM | Malme-3M > 100 µM | MOLT-4 36.7 µM | NCI/ADR-RES 67.3 µM | IGROV-1 > 100 µM | M14 > 100 µM | UACC-62 > 100 µM | SW-620 > 100 µM | KM12 > 100 µM | SNB-75 > 100 µM | BT-549 > 100 µM | SF-268 > 100 µM | RXF 393 > 100 µM | NCI-H522 47.2 µM | OVCAR-5 > 100 µM

C/C=C1/CN2CCC34C(=C(C(=O)OC)C1CC23)Nc1ccc(O)cc14 (centres undefined)
inactive: EKVX > 100 µM | MDA-MB-435 > 100 µM | NCI-H226 > 100 µM | SF-539 > 100 µM | SF-295 77.8 µM | Malme-3M > 100 µM | MOLT-4 > 100 µM | HCC 2998 > 100 µM | NCI/ADR-RES > 100 µM | IGROV-1 > 100 µM | M14 > 100 µM | UACC-62 > 100 µM | SW-620 > 100 µM | KM12 > 100 µM | SNB-75 > 100 µM | BT-549 > 100 µM | SF-268 61.8 µM | NCI-H522 > 100 µM | OVCAR-5 > 100 µM

Cc1sc(N/N=C2\C(=O)Nc3ccccc32)nc1-c1ccccc1
inactive: EKVX 11.1 µM | MDA-MB-435 19.6 µM | NCI-H226 33.3 µM | SF-539 18.8 µM | SF-295 11 µM | MOLT-4 12.6 µM | HCC 2998 22.2 µM | NCI/ADR-RES 17 µM | IGROV-1 9.48 µM | M14 16 µM | UACC-62 13.7 µM | SW-620 23.6 µM | KM12 13.6 µM | SNB-75 19.7 µM | BT-549 16.3 µM | SF-268 13.6 µM | RXF 393 15.8 µM | OVCAR-5 20.9 µM

COc1ccc(C(OCC2OC(n3ccc(NC(=O)c4ccccc4)nc3=O)CC2OP2(=S)SCCS2)(c2ccccc2)c2ccc(OC)cc2)cc1 (centres undefined)
inactive: EKVX 34.5 µM | MDA-MB-435 30.1 µM | NCI-H226 34.4 µM | SF-295 30.7 µM | Malme-3M 25.4 µM | MOLT-4 37.5 µM | NCI/ADR-RES > 10 µM | IGROV-1 33.5 µM | M14 24.9 µM | UACC-62 16.7 µM | SW-620 18.4 µM | SNB-75 24.5 µM | BT-549 25.9 µM | SF-268 21.2 µM | RXF 393 33.2 µM | NCI-H522 22.1 µM | OVCAR-5 36.8 µM

Cc1coc2c1CC1OC1(C)CCC1OC1(C)C2 (centres undefined)
inactive: EKVX > 100 µM | MDA-MB-435 > 100 µM | NCI-H226 > 100 µM | SF-539 > 100 µM | SF-295 > 100 µM | MOLT-4 > 100 µM | HCC 2998 > 100 µM | NCI/ADR-RES > 100 µM | IGROV-1 > 100 µM | M14 > 100 µM | UACC-62 > 100 µM | SW-620 > 100 µM | KM12 > 100 µM | SNB-75 > 100 µM | BT-549 > 100 µM | SF-268 > 100 µM | NCI-H522 > 100 µM | OVCAR-5 > 100 µM

C=C1CN(C(=O)c2cc3cc(OC)c(OC)c(OC)c3[nH]2)c2cc([N+](=O)[O-])ccc21
inactive: EKVX > 100 µM | MDA-MB-435 > 100 µM | NCI-H226 > 100 µM | SF-539 > 100 µM | Malme-3M > 100 µM | MOLT-4 69.3 µM | HCC 2998 > 100 µM | NCI/ADR-RES > 100 µM | IGROV-1 > 100 µM | M14 > 100 µM | UACC-62 > 100 µM | SW-620 > 100 µM | KM12 > 100 µM | SNB-75 51.1 µM | BT-549 61.2 µM | SF-268 15.5 µM | RXF 393 14.6 µM | OVCAR-5 > 100 µM

O=C(CC(Cl)(Cl)C(Cl)(Cl)Cl)c1ccccc1
inactive: MDA-MB-435 2.23 µM | NCI-H226 3.63 µM | SF-539 16.2 µM | SF-295 1.78 µM | Malme-3M 2.71 µM | MOLT-4 3.17 µM | NCI/ADR-RES 5.26 µM | IGROV-1 4.84 µM | M14 2.62 µM | UACC-62 2.74 µM | SW-620 3.51 µM | KM12 4.18 µM | SNB-75 15.3 µM | BT-549 10.7 µM | SF-268 11.7 µM | RXF 393 1.96 µM | NCI-H522 2.65 µM | OVCAR-5 11.2 µM

COc1ccc(/C(=N/OCCCC(=O)O)c2cccs2)cc1
inactive: EKVX > 100 µM | MDA-MB-435 > 100 µM | NCI-H226 > 100 µM | SF-539 > 100 µM | SF-295 > 100 µM | Malme-3M > 100 µM | MOLT-4 > 100 µM | HCC 2998 > 100 µM | NCI/ADR-RES > 100 µM | UACC-62 > 100 µM | SW-620 > 100 µM | KM12 > 100 µM | SNB-75 > 100 µM | BT-549 > 100 µM | SF-268 > 100 µM | RXF 393 > 100 µM | OVCAR-5 > 100 µM

CC(C)(C)c1cc(/C=C(\C#N)C(=O)NCCO)cc(C(C)(C)C)c1O
inactive: EKVX 24.5 µM | MDA-MB-435 21.1 µM | NCI-H226 19.5 µM | SF-539 18.3 µM | SF-295 16.9 µM | Malme-3M 17.3 µM | MOLT-4 18.7 µM | NCI/ADR-RES 23 µM | IGROV-1 40.7 µM | M14 17.1 µM | UACC-62 13.6 µM | SW-620 28.8 µM | KM12 21.5 µM | SNB-75 31.8 µM | BT-549 25.1 µM | SF-268 31.9 µM | RXF 393 27.4 µM | NCI-H522 16.5 µM | OVCAR-5 24.1 µM

O=C(CNC(c1ccccc1)(c1ccccc1)c1ccccc1)NC1CCCCC1NC(=O)CNC(c1ccccc1)(c1ccccc1)c1ccccc1 (centres undefined)
inactive: EKVX 2.99 µM | MDA-MB-435 > 100 µM | SF-539 > 100 µM | SF-295 > 100 µM | Malme-3M > 100 µM | MOLT-4 > 100 µM | HCC 2998 > 100 µM | NCI/ADR-RES > 100 µM | IGROV-1 > 100 µM | UACC-62 > 100 µM | SW-620 > 100 µM | KM12 > 100 µM | BT-549 > 100 µM | SF-268 24.2 µM | NCI-H522 > 100 µM | OVCAR-5 > 100 µM

O=C1/C(=C/c2ccc(OC(=O)c3ccccc3)cc2)CCC/C1=C\c1ccc(OC(=O)c2ccccc2)cc1
inactive: EKVX > 100 µM | MDA-MB-435 > 100 µM | SF-539 > 100 µM | SF-295 > 100 µM | MOLT-4 > 100 µM | HCC 2998 > 100 µM | NCI/ADR-RES > 100 µM | IGROV-1 > 100 µM | M14 > 100 µM | UACC-62 > 100 µM | SW-620 > 100 µM | KM12 > 100 µM | SNB-75 93.3 µM | BT-549 > 100 µM | SF-268 > 100 µM | NCI-H522 > 100 µM | OVCAR-5 > 100 µM

CCOC(=O)C(Cc1ccc(N(CCCl)CCCl)cc1)NC(=O)C(Cc1ccccc1)NC(C)=O (centres undefined)
active: EKVX > 0.347 µM | MDA-MB-435 0.264 µM | NCI-H226 > 1 µM | SF-539 0.175 µM | SF-295 > 0.326 µM | Malme-3M 0.0887 µM | MOLT-4 0.0581 µM | HCC 2998 > 1 µM | NCI/ADR-RES > 0.33 µM | IGROV-1 0.0414 µM | M14 0.141 µM | UACC-62 0.136 µM | SW-620 0.236 µM | KM12 > 0.338 µM | SNB-75 > 1 µM | BT-549 > 0.583 µM | SF-268 0.126 µM | RXF 393 0.106 µM | OVCAR-5 > 0.293 µM

CC(CC(=O)O)C(C(=O)O)C(=O)O (centres undefined)
inactive: EKVX > 100 µM | MDA-MB-435 > 100 µM | NCI-H226 > 100 µM | SF-539 > 100 µM | SF-295 > 100 µM | Malme-3M > 100 µM | MOLT-4 > 100 µM | NCI/ADR-RES > 100 µM | IGROV-1 > 100 µM | M14 > 100 µM | UACC-62 > 100 µM | SW-620 > 100 µM | KM12 > 100 µM | SNB-75 > 100 µM | BT-549 > 100 µM | SF-268 > 100 µM | RXF 393 > 100 µM | NCI-H522 > 100 µM | OVCAR-5 > 100 µM

S=C1CC(c2ccccc2)Sc2cc(Cl)ccc2N1 (centres undefined)
active: MDA-MB-435 0.723 µM
inactive: EKVX 20.7 µM | NCI-H226 14.2 µM | SF-295 3.45 µM | Malme-3M 6.28 µM | MOLT-4 1.51 µM | NCI/ADR-RES 3.52 µM | IGROV-1 16 µM | M14 3.12 µM | UACC-62 5.56 µM | KM12 3.97 µM | SNB-75 5.24 µM | BT-549 8.79 µM | SF-268 6.84 µM | RXF 393 6.55 µM | NCI-H522 2.21 µM | OVCAR-5 > 100 µM

COc1cc(Cc2nccc3cc(OC)c(OC)cc23)c(/N=N/N(C)C)cc1OC
inactive: EKVX 14.6 µM | MDA-MB-435 18.5 µM | NCI-H226 20.4 µM | SF-295 19.9 µM | Malme-3M 22.3 µM | MOLT-4 5.27 µM | HCC 2998 14.6 µM | NCI/ADR-RES 23.1 µM | IGROV-1 13.5 µM | M14 17.5 µM | UACC-62 13.2 µM | SW-620 7.94 µM | KM12 18.7 µM | SNB-75 34 µM | BT-549 18.2 µM | SF-268 22.1 µM | RXF 393 2.99 µM | OVCAR-5 20.5 µM
